Measured values published in article PMC11500415, “Chemical inhibition of stomatal differentiation by perturbation of the master-regulatory bHLH heterodimer via an ACT-Like domain” (Nature Communications, 2024).
“And” between values parts separate entries of the source, which are not always exact repeats. Identical values can stand only once.

System: mute-2 seedlings expressing MUTEpro::MUTE-GFP, MUTEpro::MUTEE162A_E163A-GFP or MUTEpro::MUTER133A_R134A-GFP
Assay: Stomidazolone resistance of mute-2 seedlings expressing engineered MUTE-GFP
Type: in vivo, Arabidopsis
Procedure: Arabidopsis accession Columbia (Col-0) was used as wild-type. […] Their genotype and transcript reduction were confirmed. The presence of transgenes/mutant alleles were confirmed by genotyping. For liquid culture with Stomidazolone (AYSJ929, compound 3), the analogs (AYSJ1059 (compound 5) and AYSJ1061 (compound 6)), degraded compound lzx103 (compound 4), and SIM3* (compound 7), all compounds were dissolved in dimethyl sulfoxide (DMSO, Molecular biology grade, Fujifilm Wako, Japan 046-21981), Col-0 seeds were sown in 96-well plates (TL5003; True Line) containing 95 μL of 1/2 MS media containing 0.5% sucrose with rotary shaking at 140 rpm under continuous light at 22 °C. Five μL of compounds were dissolved in DMSO at 10 mM and diluted with liquid 1/2 MS media to 1 mM and added on 1-day-old seedlings (final concentration, 50 μM). Seedlings were incubated for 8 days, and at day 9 seedling abaxial cotyledons were observed through confocal microscopy. For liquid culture of scrm-D_S343 and scrm-D_S423, 1/2 MS liquid media without sucrose was used. For the solid culture, 0, 20, 50 or 100 μM Stomidazolone were solidified with low-melting agarose (5805S, PrimeGelTM Agarose LMT 1-20 K, TAKARA Bio). Briefly, 1/2 MS salt, 0.5% sucrose, and 0.8% low melting agarose were mixed in water and autoclaved. After cooling the medium at around 30 °C, Stomidazolone (500x, dissolved in DMSO) was added and poured into 90 mm petri dishes (Asnol Petri Dish JP φ90 x 15 mm, 3-1491-01, AS ONE). Col-0 seeds were sown on Stomidazolone-containing 1/2 MS agarose media and grown under continuous light for 9 days.
The following constructs for transgenic plants were generated in this study: MUTEpro::MUTE-GFP (pAH11), MUTEpro::MUTEE162AE163A-GFP (pHS133), MUTEpro::MUTER133AR134A-GFP (pHS134). The original MUTEpro::MUTE-GFP construct (pLJP155) was generated via a different cloning strategy with different antibiotics selection. We therefore re-generated the wild-type Three-way Gateway version of MUTEpro::MUTE-GFP (pAH11) as a control. MUTE genomic coding construct without stop codon (pAR205) and MUTE promoter construct (pAR202) were subjected to the Gateway reaction with R4pGWB504[56]. The wild-type MUTE-GFP lines with the identical R4pGWB504 backbone enable a proper comparison of phenotypic complementation. The mutant versions of MUTE constructs were generated in the same way after site-directed mutagenesis using Q5 Site-directed mutagenesis kit (NEB) and subjected to the Three-Way Gateway reaction after sequence confirmation. The constructs were then transformed into the Agrobacterium strain GV3101 and floral dipped into mute-2/+ plants. To construct CaMV35S::H2B-mScarlet-I3/pPZP211 (DKv1400), 35S promoter (35Sp::RFP-CenH3 with DKp665-DKp1254)[57], H2B-(SGGGG)2 linker (from DKv1200[58] with DKp2412-DKp2599), mScarlet-I3 (from codon optimized synthetic DNA for A. thaliana), Nos terminator (from DKv1200 with DKp1251-DKp2598) were amplified using KOD one polymerase (TOYOBO). The PCR products were assembled into BamHI/EcoRI-digested pPZP211[59] using the NEBuilder HiFi DNA Assembly (NEB). For detailed lists of oligo DNA and plasmid information, see Tables S5 and S6, respectively.
For quantitative analysis of the abaxial leaf epidermis, confocal images were taken on the days after germination as indicated in the Figure legends. Preparation of images was done as described previously[32],[70]. For counting epidermal cell types, stomatal density, stomatal precursor cells (meristemoids), total stomata-lineage cells (stomata and meristemoids) were calculated by counting cell types in an area of 0.4 mm^2 (0.63 mm × 0.63 mm) and plotted as per mm^2. A series of Z-stack confocal images was obtained to obtain images covering the epidermis and capturing GFP/YFP signal from the reporter lines. The area and the number of epidermal cells were quantified by using FIJI-ImageJ. Statistical analyses were performed using R ver. 4.0.2. […]

[1] = line AH11 Ln5, 20 μM Stomidazolone, cotyledon abaxial epidermis, individual seedlings
[2] = line HS133 Ln26, 20 μM Stomidazolone, cotyledon abaxial epidermis, individual seedlings
[3] = line HS134 Ln26, 20 μM Stomidazolone, cotyledon abaxial epidermis, individual seedlings
[4] = transgenic line AH11 Ln25, cotyledon abaxial epidermis, 20 μM Stomidazolone, individual seedlings
[5] = transgenic line HS133 Ln19, cotyledon abaxial epidermis, 20 μM Stomidazolone, individual seedlings
[6] = transgenic line HS134 Ln23, cotyledon abaxial epidermis, 20 μM Stomidazolone, individual seedlings

Q: With `O=C1C(c2ccccc2)=NC(NS(=O)(=O)c2ccccc2)(c2ccccc2)N1S(=O)(=O)c1ccccc1` (centres unmarked) [Stomidazolone] as the molecule, how does the “effect on numbers of stomata and meristemoids (in words)” value (20 μM, eight days, MUTEpro::MUTEE162A_E163A-GFP and MUTEpro::MUTER133A_R134A-GFP in mute-2) read?
A: did not significantly affect the numbers of stomata and meristemoids

Q: And the “effect on number of stomata (in words)” value (20 μM, eight days, control MUTEpro::MUTE-GFP mute-2)?
A: significantly reduced the number of stomata

Q: And the Meristemoid density [1]?
A: 0 per mm2 and 2 per mm2 and 5 per mm2

Q: And the “Stomata Total density” value [1]?
A: 165 per mm2 and 160 per mm2 and 190 per mm2 and 197 per mm2 and 136 per mm2 and 163 per mm2 and 180 per mm2

Q: And the “total (stomata and meristemoids) density” value [1]?
A: 165 per mm2 and 163 per mm2 and 192 per mm2 and 199 per mm2 and 141 per mm2 and 182 per mm2

Q: And the Meristemoid density [2]?
A: 2 per mm2 and 0 per mm2 and 5 per mm2

Q: What about the “Stomata Total density” value [2] of the same molecule?
A: 279 per mm2 and 170 per mm2 and 177 per mm2 and 226 per mm2 and 425 per mm2 and 199 per mm2

Q: And the “total (stomata and meristemoids) density” value [2]?
A: 282 per mm2 and 170 per mm2 and 180 per mm2 and 177 per mm2 and 226 per mm2 and 425 per mm2 and 182 per mm2 and 202 per mm2

Q: And the Meristemoid density [3]?
A: 0 per mm2 and 7 per mm2 and 29 per mm2 and 5 per mm2

Q: What about the Stomata density [3] of the same molecule?
A: 279 per mm2 and 309 per mm2 and 190 per mm2 and 194 per mm2 and 272 per mm2 and 294 per mm2 and 367 per mm2 and 304 per mm2

Q: What about the “total (stomata and meristemoids) density” value [3] of the same molecule?
A: 279 per mm2 and 316 per mm2 and 197 per mm2 and 224 per mm2 and 272 per mm2 and 294 per mm2 and 367 per mm2 and 309 per mm2

Q: And the Meristemoid density [4]?
A: 0 per mm2 and 5 per mm2 and 2 per mm2

Q: What about the stomatal density [4] of the same molecule?
A: 197 per mm2 and 216 per mm2 and 250 per mm2 and 287 per mm2 and 219 per mm2 and 182 per mm2 and 226 per mm2

Q: And the “total (stomata and meristemoids) density” value [4]?
A: 197 per mm2 and 221 per mm2 and 253 per mm2 and 287 per mm2 and 219 per mm2 and 216 per mm2 and 182 per mm2 and 226 per mm2

Q: What about the Meristemoid density [5] of the same molecule?
A: 0 per mm2 and 5 per mm2 and 2 per mm2 and 17 per mm2

Q: What about the stomatal density [5] of the same molecule?
A: 267 per mm2 and 442 per mm2 and 316 per mm2 and 250 per mm2 and 209 per mm2 and 224 per mm2 and 437 per mm2 and 294 per mm2

Q: What about the “total (stomata and meristemoids) density” value [5] of the same molecule?
A: 267 per mm2 and 442 per mm2 and 321 per mm2 and 255 per mm2 and 209 per mm2 and 228 per mm2 and 440 per mm2 and 311 per mm2

Q: And the Meristemoid density [6]?
A: 0 per mm2 and 5 per mm2

Q: And the “stomatal density (Stomata Total)” value [6]?
A: 345 per mm2 and 221 per mm2 and 180 per mm2 and 267 per mm2 and 479 per mm2 and 316 per mm2 and 207 per mm2 and 199 per mm2

Q: And the “total (stomata and meristemoids) density” value [6]?
A: 345 per mm2 and 221 per mm2 and 185 per mm2 and 267 per mm2 and 479 per mm2 and 316 per mm2 and 211 per mm2 and 199 per mm2
